Data on 1 compound can be found in PMC6222558, “Synthesis and Evolution of Berberine Derivatives as a New Class of Antiviral Agents against Enterovirus 71 through the MEK/ERK Pathway and Autophagy” (Molecules : A Journal of Synthetic Chemistry and Natural …, 2018).

pIC50: −log10 of the molar value.

Experiment [1] deals with EV71 JS-52 strain (genotype C4). The experiment can be described thus: CPE inhibition assay for anti-EV71, JS-52 strain. The following applies: Enterovirus A, EV71; Vero cells; CPE; calculated on the organic part; n = 3; read-out: JS-52 Strain IC50. Format: cell-based, enterovirus 71 (EV71). The essentials: (§1)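 Vero cells infected with 100 × TCID50 EV71 for 1 h at 37 °C in serum-free medium, unbound virus removed, then compounds added for 72 h. IC50 from inhibition of virus-induced CPE; TC50 as concentration giving 50% CPE at 72 h, with selectivity index; crystal violet staining for imaging.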

Another experiment concerns EV71 VP1 RNA. The experiment can be described thus: EV71 VP1 RNA by one-step qRT-PCR in infected Vero cells. The following applies: Vero cells infected with H strain; 24 h; better than BBR. Format: cell-based, enterovirus 71 (EV71). The procedure: To further confirm the anti-EV71 activity, the VP1 down-regulatory activity of 2d was examined in Vero cells infected with H strain of EV71, in comparison with that of BBR. […] Accordingly, VP1 capsid protein expression was also analyzed to examine its effect on EV71 biological synthesis.
Vero cells (9 × 10^5 cells/well) were plated into 6-well culture plates and incubated for 16 h. The medium was removed and cells were infected with EV71 for 1 h (H). Various concentrations of compound 2d and BBR were supplemented for incubation of another 24 h. Total RNA of the infected cells was isolated using the RNeasy Mini kit (QIAGEN, Hilden, Germany) and the information of the primer was listed in the Table 2.
One-step qRT-PCR was performed with SuperScript III Platinum SYBR Green One-step RT-PCR Kit (Invitrogen, Carlsbad, CA, USA) using the ABI 7500 Fast real-time PCR system (Applied Biosystems, Carlsbad, CA, USA). PCR assay was carried out in a 25 μL volume and the target fragment amplification was carried out as follows: reverse transcription at 50 °C for 3 min; initial activation of HotStar Taq DNA Polymerase at 95 °C for 10 min; 40 cycles in two steps: 95 °C for 15 s, 60 °C for 30 s.
Background: In qPCR the cycle at which signal appears reflects the starting amount.

In experiment [2] the test system is EV71 SHZH98 strain (genotype C4). Briefly: CPE inhibition assay for anti-EV71, SHZH98 strain. Format: cell-based, enterovirus 71 (EV71). The note with it: Enterovirus A, EV71; Vero cells; CPE; calculated on the organic part; n = 3; read-out: SHZH98 Strain IC50. The procedure, abridged:
as §1

For a further experiment, the system named is EV71-induced CPE. Briefly: CPE assay with microscopy and crystal violet staining. The class given is cell-based, enterovirus 71 (EV71). The following applies: 20 μM; Vero cells; better than that of BBR. The method, then: Furthermore, microscopy and crystal violet staining was used to further investigation the anti-EV71 effect of 2d with CPE (cytopathic effect) assay.
(§2) The anti-EV71 activities of all tested compounds were detected by the virus-induced CPE assay. Briefly, cells (3 × 10^4 cells/well) were plated into 96-well culture plates and incubated for 16 h. Then, remove the medium and infected cells with EV71 of 100 × TCID50 (50% tissue culture infective doses) in serum-free medium for 1 h at 37 °C. After that, the unbound viruses were removed and various concentrations of tested compounds were supplemented for incubation of another 72 h. […] TC50 defined as the concentration that leads to the 50% of CPE which determined by the same method in 72 h. In addition, the cells were stained the cells were colored with 0.5% crystal violet in 20% ethanol for 15 min at room temperature and the cells were imaged after rinsed with PBS.
Figure 2 The anti-EV71 effect of compound 2d in Vero cells with BBR as a positive control. (A) 2d reduced the EV71-induced CPE. Cells were examined using a microscopy (×40); (B) 2d reduced the EV71-induced CPE. Cells were examined using crystal violet staining; (C) 2d reduced the expression of EV71 VP1 RNA by one-step qRT-PCR assay. ** p < 0.001 * p < 0.05; (D) 2d reduced the expression of EV71 VP1 protein by western blot assay.

For experiment [3], the system named is four different genotype enterovirus 71 (EV71) strains. The experiment can be described thus: CPE assay, summary over the four EV71 strains. The class given is cell-based. The note with it: Enterovirus A, EV71, read-out: IC50 values against all tested EV71 strains. The method, then:
Thus, all newly synthesized BBR analogues were screened for their anti-EV71 potencies in African green monkey kidney (Vero) cells taking BBR as the positive control. EV71 strains used in the present study include different genotype strains, such as H strain (VR-1432, genotype C2), BrCr strain (VR-1775, genotype A), and JS-52 and SHZH98 (genotype C4). The potency against EV71 strains above mentioned of each tested compound was evaluated by the combination of its IC50 and selectivity index (SI) value as the important therapeutic indication.
as §2

Experiment [4] has as its system EV71 H strain (VR-1432, genotype C2). The experiment can be described thus: CPE inhibition assay for anti-EV71, H strain. The class given is cell-based, enterovirus 71 (EV71). The following applies: Enterovirus A, EV71; Vero cells; CPE; calculated on the organic part; n = 3; read-out: H Strain IC50. The procedure, abridged: as §1

Usually pIC50 stands for −log10 of the IC50, conventionally taken in molar units. As to `COc1ccc2cc3[n+](cc2c1OCC(=O)OCc1ccccc1)CCc1cc2c(cc1-3)OCO2` [2d, 2,3-Methylenedioxy-9-benzyloxyformylmethylenoxy-10-methoxyprotoberberine chloride], the pIC50 in experiment [1] is 5.15; in experiment [2], 4.83; in experiment [3], 4.83 to 5.15; in experiment [4] it was 4.91. In addition, in the experiment with EV71 VP1 RNA, the “VP1 RNA expression” value is given as “significantly reduced VP1 RNA expression in a dose-dependently way”. In addition, the “reduction of EV71-induced CPE” value in the experiment on EV71-induced CPE is given as “significantly reduce the EV71-induced CPE”.
